Laboratory results as given in patent US20240376075A1, “POLYMORPHIC FORMS OF AURORA A SELECTIVE INHIBITORS AND USES THEREOF” (Jacobio Pharmaceuticals Co., Ltd., priority 2021, published 2024).

Key:
[1] = Crystal form stability experiment (XRPD); format: physicochemical; details: for Results (XRPD): uncapped or sealed, protected from light, 7 days and 14 days
Procedure: 1. […] The crystal forms stability test was carried out under the specified experimental conditions.

[2] = PK in rat, oral suspension; format: in vivo; details: Sprague-Dawley, plasma, SD rats, PO: 5 mg/kg, suspension in 0.5% CMC-Na
Procedure: The plasma samples were collected at 0 hour (pre-dose), 0.083, 0.25, 0.5, 1, 2, 4, 6, 8, 24 hours post-dose. Plasma drug concentration was detected by LC-MS/MS. Pharmacokinetic parameters were calculated using WinNonlin's software with non-compartmental model.

[3] = PK in dog, oral suspension; format: in vivo, Beagle dogs; details: for AUC(0-t) / Cmax / half-life: dog, plasma, Beagle dogs, suspension in 0.5% CMC-Na
Procedure: Then plasma samples were collected at 0 hour (pre-dose), 0.083, 0.25, 0.5, 1, 2, 4, 6, 8, 24 hours post-dose. Plasma drug concentration was detected by LC-MS/MS. Pharmacokinetic parameters were calculated using WinNonlin's software with non-compartmental model.

## Cc1cc(Nc2nc(C[C@@]3(C(=O)[O-])CCN(Cc4cccc(Cl)c4F)[C@H](C)C3)cc(C)c2F)n[nH]1.[K+] [polymorph form I, potassium (2R,4R)-1-(3-chloro-2-fluorobenzyl)-4-((5-fluoro-4-methyl-6-((3-methyl-1H-pyrazol-5-yl)amino)pyridin-2-yl)methyl)-2-methylpiperidine-4-carboxylate monohydrate]
[1]; Accelerated (40° C. ± 2° C., 75% RH ± 10% RH)
  Results (XRPD): Polymorph form I
[1]; Long-time (25° C. ± 2° C., 65% RH ± 10% RH)
  Results (XRPD): Polymorph form I
[1]; at room temperature
  relative stability of the forms: most stable
[1]; long-term and accelerated conditions for 14 days
  crystal form stability: remained unchanged
[2]
  AUC(0-t): 93300 ng·h/mL
  Cmax: 12400 ng/mL
  half-life: 4.11 h
[3]; PO: 3 mg/kg
  AUC(0-t): 45500 ng·h/mL
  Cmax: 14400 ng/mL
  half-life: 8.12 h
[3]; PO: 10 mg/kg
  AUC(0-t): 165000 ng·h/mL
  Cmax: 45000 ng/mL
  half-life: 4.51 h
[3]; oral, summary of Examples 6 and 7 (rat and dog)
  absorption and exposure in vivo: great absorption and a high exposure

## Cc1cc(Nc2nc(C[C@@]3(C(=O)[O-])CCN(Cc4cccc(Cl)c4F)[C@H](C)C3)cc(C)c2F)n[nH]1.[K+] [amorphous, potassium (2R,4R)-1-(3-chloro-2-fluorobenzyl)-4-((5-fluoro-4-methyl-6-((5-methyl-1H-pyrazol-3-yl)amino)pyridin-2-yl)methyl)-2-methylpiperidine-4-carboxylate]
[1]; sealed for more than two weeks
  solid form conversion: transformed to Polymorph form I

## Cc1cc(Nc2nc(C[C@@]3(C(=O)[O-])CCN(Cc4cccc(Cl)c4F)[C@H](C)C3)cc(C)c2F)n[nH]1.[K+] [Polymorph form III, potassium (2R,4R)-1-(3-chloro-2-fluorobenzyl)-4-((5-fluoro-4-methyl-6-((5-methyl-1H-pyrazol-3-yl)amino)pyridin-2-yl)methyl)-2-methylpiperidine-4-carboxylate]
[1]; when cooled back to room temperature
  solid form conversion: converted to polymorph form I

## Cc1cc(Nc2nc(C[C@@]3(C(=O)[O-])CCN(Cc4cccc(Cl)c4F)[C@H](C)C3)cc(C)c2F)n[nH]1.[K+] [Polymorph form II, potassium (2R,4R)-1-(3-chloro-2-fluorobenzyl)-4-((5-fluoro-4-methyl-6-((5-methyl-1H-pyrazol-3-yl)amino)pyridin-2-yl)methyl)-2-methylpiperidine-4-carboxylate]
[1]; after drying under 40° C. overnight
  solid form conversion: converted to polymorph form I
